Assay results published in patent US20190307776A1, “AZA-S[…] HUMAN IMMUNODEFICIENCY VIRUS REPLICATION” (priority 2016, published 2019).

test system: recombinant NL4-3 virus; experiment: HIV cell culture assay; assay type: cell-based; details: Human immunodeficiency virus 1, NL43, MT2
Method: HIV cell culture assay—MT-2 cells and 293T cells were obtained from the NIH AIDS Research and Reference Reagent Program. MT-2 cells were propagated in RPMI 1640 media supplemented with 10% heat inactivated fetal bovine serum, 100 […]. The 293T cells were propagated in DMEM media supplemented with 10% heat inactivated fetal bovine serum (FBS), 100 units/ml penicillin G and 100 μg/ml streptomycin. The proviral DNA clone of NL4-3 was obtained from the NIH AIDS Research and Reference Reagent Program. A recombinant NL4-3 virus, in which a section of the nef gene from NL4-3 was replaced with the Renilla luciferase gene, was used as a reference virus. In addition, residue Gag P373 was converted to P373S. Briefly, the recombinant virus was prepared by transfection of the altered proviral clone of NL4-3. Transfections were performed in 293T cells using LipofectAMINE PLUS from Invitrogen (Carlsbad, Calif.), according to manufacturer's instruction. The virus was titered in MT-2 cells using luciferase enzyme activity as a marker. Luciferase was quantitated using the Dual Luciferase kit from Promega (Madison, Wis.), with modifications to the manufacturer's protocol. The diluted Passive Lysis solution was pre-mixed with the re-suspended Luciferase Assay Reagent and the re-suspended Stop & Glo Substrate (2:1:1 ratio). Fifty (50) μL of the mixture was added to each aspirated well on assay plates and luciferase activity was measured immediately on a Wallac TriLux (Perkin-Elmer). Antiviral activities of inhibitors toward the recombinant virus were quantified by measuring luciferase activity in cells infected for 4-5 days with NLRluc recombinants in the presence serial dilutions of the inhibitor.

Structure (SMILES)	EC50 [µM]
C=C(C)[C@@H]1CC[C@]2(CNCCCN3CCS(=O)(=O)CC3)CC[C@]3(C)[C@H](CC[C@@H]4[C@@]5(C)CCN(C/C=C/C(=O)O)C(C)(C)[C@@H]5CC[C@]43C)[C@@H]12 [Example 34, (E)-4-((4aR,6aR,6bR,8aS,11R,11aR,11bR,13aR,13bR)-8a-(((3-(1,1-dioxidothiomorpholino)propyl)amino)methyl)-4,4,6a,6b,13b-pentamethyl-11-(prop-1-en-2-yl)hexadecahydro-1H-cyclopenta[5,6]naphtho[2,1-f]isoquinolin-3(2H,4H,13bH)-yl)but-2-enoic acid]	> 3
C=C(C)[C@@H]1CC[C@]2(CNCCCN3CCS(=O)(=O)CC3)CC[C@]3(C)[C@H](CC[C@@H]4[C@@]5(C)CCN(c6ccc(C(=O)O)cc6)C(C)(C)[C@@H]5CC[C@]43C)[C@@H]12 [Example 48, 4-((4aR,6aR,6bR,8aS,11R,11aR,11bR,13aR,13bR)-8a-(((3-(1,1-dioxidothiomorpholino)propyl)amino)methyl)-4,4,6a,6b,13b-pentamethyl-11-(prop-1-en-2-yl)hexadecahydro-1H-cyclopenta[5,6]naphtho[2,1-f]isoquinolin-3(2H,4H,13bH)-yl)benzoic acid]	0.005
C=C(C)[C@@H]1CC[C@]2(CNCCCN3CCS(=O)(=O)CC3)CC[C@]3(C)[C@H](CC[C@@H]4[C@@]5(C)CCN(C(=O)CC6(CC(=O)O)CCCC6)C(C)(C)[C@@H]5CC[C@]43C)[C@@H]12 [Example 26, 2-(1-(2-((4aR,6aR,6bR,8aS,11R,11aR,11bR,13aR,13bR)-8a-(((3-(1,1-dioxidothiomorpholino)propyl)amino)methyl)-4,4,6a,6b,13b-pentamethyl-11-(prop-1-en-2-yl)hexadecahydro-1H-cyclopenta[5,6]naphtho[2,1-f]isoquinolin-3(2H,4H,13bH)-yl)-2-oxoethyl)cyclopentyl)acetic acid]	0.13
C=C(C)[C@@H]1CC[C@]2(CO)CC[C@]3(C)[C@H](CC[C@@H]4[C@@]5(C)CCCN(S(=O)(=O)c6ccc(C(=O)O)cc6)C(C)(C)C5CC[C@]43C)[C@@H]12 (stereo partly drawn) [Example 14, 4-(((7aR,7bR,9aS,12R,12aR,12bR,14aR,14bR)-9a-(hydroxymethyl)-5,5,7a,7b,14b-pentamethyl-12-(prop-1-en-2-yl)icosahydrocyclopenta[7,8]phenanthro[2,1-c]azepin-4(1H)-yl)sulfonyl)benzoic acid]	1.7
C=C(C)[C@@H]1CC[C@]2(CO)CC[C@]3(C)[C@H](CC[C@@H]4[C@@]5(C)CCN(S(=O)(=O)c6ccc(CC(=O)O)cc6)C(C)(C)C5CC[C@]43C)[C@@H]12 (stereo partly drawn) [Example 19, 2-(4-(((6aR,6bR,8aS,11R,11aR,11bR,13aR,13bR)-8a-(hydroxymethyl)-4,4,6a,6b,13b-pentamethyl-11-(prop-1-en-2-yl)icosahydro-3H-cyclopenta[5,6]naphtho[2,1-f]isoquinolin-3-yl)sulfonyl)phenyl)acetic acid]	> 8
C=C(C)[C@@H]1CC[C@]2(CO)CC[C@]3(C)[C@H](CC[C@@H]4[C@@]5(C)CCCN(S(=O)(=O)c6ccc(C)c(C(=O)O)c6)C(C)(C)C5CC[C@]43C)[C@@H]12 (stereo partly drawn) [Example 16, 5-(((7aR,7bR,9aS,12R,12aR,12bR,14aR,14bR)-9a-(hydroxymethyl)-5,5,7a,7b,14b-pentamethyl-12-(prop-1-en-2-yl)icosahydrocyclopenta[7,8]phenanthro[2,1-c]azepin-4(1H)-yl)sulfonyl)-2-methylbenzoic acid]	> 8
C=C(C)[C@@H]1CC[C@]2(CO)CC[C@]3(C)[C@H](CC[C@@H]4[C@@]5(C)CCN(C(=O)c6cccc(C(=O)O)c6)C(C)(C)C5CC[C@]43C)[C@@H]12 (stereo partly drawn) [Example 5, 3-((6aR,6bR,8aS,11R,11aR,11bR,13aR,13bR)-8a-(hydroxymethyl)-4,4,6a,6b,13b-pentamethyl-11-(prop-1-en-2-yl)icosahydro-1H-cyclopenta[5,6]naphtho[2,1-f]isoquinoline-3-carbonyl)benzoic acid]	1.25
C=C(C)[C@@H]1CC[C@]2(CNCCCN3CCS(=O)(=O)CC3)CC[C@]3(C)[C@H](CC[C@@H]4[C@@]5(C)CCN(CC(=O)NC(C)(C)C(=O)O)C(C)(C)[C@@H]5CC[C@]43C)[C@@H]12 [Example 35, 2-(2-((4aR,6aR,6bR,8aS,11R,11aR,11bR,13aR,13bR)-8a-(((3-(1,1-dioxidothiomorpholino)propyl)amino)methyl)-4,4,6a,6b,13b-pentamethyl-11-(prop-1-en-2-yl)hexadecahydro-1H-cyclopenta[5,6]naphtho[2,1-f]isoquinolin-3(2H,4H,13bH)-yl)acetamido)-2-methylpropanoic acid]	> 3
C=C(C)[C@@H]1CC[C@]2(CO)CC[C@]3(C)[C@H](CC[C@@H]4[C@@]5(C)CCN(S(=O)(=O)c6ccc(/C=C/C(=O)O)cc6)C(C)(C)C5CC[C@]43C)[C@@H]12 (stereo partly drawn) [Example 18, (E)-3-(4-(((6aR,6bR,8aS,11R,11aR,11bR,13aR,13bR)-8a-(hydroxymethyl)-4,4,6a,6b,13b-pentamethyl-11-(prop-1-en-2-yl)icosahydro-3H-cyclopenta[5,6]naphtho[2,1-f]isoquinolin-3-yl)sulfonyl)phenyl)acrylic acid]	4.2
C=C(C)[C@@H]1CC[C@]2(CO)CC[C@]3(C)[C@H](CC[C@@H]4[C@@]5(C)CCCN(S(=O)(=O)c6cccc(C(=O)O)c6)C(C)(C)C5CC[C@]43C)[C@@H]12 (stereo partly drawn) [Example 13, 3-(((7aR,7bR,9aS,12R,12aR,12bR,14aR,14bR)-9a-(hydroxymethyl)-5,5,7a,7b,14b-pentamethyl-12-(prop-1-en-2-yl)icosahydrocyclopenta[7,8]phenanthro[2,1-c]azepin-4(1H)-yl)sulfonyl)benzoic acid]	> 8
C=C(C)[C@@H]1CC[C@]2(CNCCCN3CCS(=O)(=O)CC3)CC[C@]3(C)[C@H](CC[C@@H]4[C@@]5(C)CCN(c6c(O)c(=O)c6=O)C(C)(C)[C@@H]5CC[C@]43C)[C@@H]12 [Example 55, 3-((4aR,6aR,6bR,8aS,11R,11aR,11bR,13aR,13bR)-8a-(((3-(1,1-dioxidothiomorpholino)propyl)amino)methyl)-4,4,6a,6b,13b-pentamethyl-11-(prop-1-en-2-yl)hexadecahydro-1H-cyclopenta[5,6]naphtho[2,1-f]isoquinolin-3(2H,4H,13bH)-yl)-4-hydroxycyclobut-3-ene-1,2-dione]	0.25
C=C(C)[C@@H]1CC[C@]2(CNCCCN3CCS(=O)(=O)CC3)CC[C@]3(C)[C@H](CC[C@@H]4[C@@]5(C)CCN(C(=O)C(=O)O)C(C)(C)[C@@H]5CC[C@]43C)[C@@H]12 [Example 37, 2-((4aR,6aR,6bR,8aS,11R,11aR,11bR,13aR,13bR)-8a-(((3-(1,1-dioxidothiomorpholino)propyl)amino)methyl)-4,4,6a,6b,13b-pentamethyl-11-(prop-1-en-2-yl)hexadecahydro-1H-cyclopenta[5,6]naphtho[2,1-f]isoquinolin-3(2H,4H,13bH)-yl)-2-oxoacetic acid]	> 3
